The record followed here is a melting point compilation (Tetko et al.; mined from patent text by program, amines drawn as free bases though some values may be those of a salt).

Some results are limits rather than exact numbers.

Take `CC(=O)C=CC1=C(C)C(=O)CCC1(C)C`: the melting point (in general, the temperature, or range, at which the solid turns liquid) lay within 50 to 51 °C.

As for `c1ccc2c(-c3nnn[nH]3)cccc2c1`, the melting point was in the range of 205 to 206 °C.

Take `CCCOc1ccc(S(=O)(=O)NCC2(NCC)CCCCCC2)cc1-c1nc2c([nH]1)c1nncn1c(=O)n2CCC`: the melting point stood at 203 °C.

For the molecule `CCC(C)(C)NC1=NS(=O)(=O)c2sc(Cl)cc2N1`, the melting point was 359 to 360 °C.

In turn, `CC(C)Cn1c(=O)n(C)c(=O)c2c(SC(C)C)c(Cn3cnc4ccccc43)sc21` yielded a melting point of 195 °C.

`O=C(O)c1nc2cc(N3CCCCC3)c([N+](=O)[O-])cc2[nH]c1=O` yielded a melting point of over 300 °C.

`CCOC(=O)c1sc2c(ccc(=O)n2-c2ccccc2)c1Br` displayed a melting point of 202 to 206 °C.

`CC(C)(C)OC(=O)NC[C@H]1CC[C@H](NC(=O)OCc2ccccc2)CC1` registered a melting point of 130 to 131 °C.

Regarding `Cc1cccc2[nH]c(=O)n(CCCN3CC=C(c4cccc(Cl)c4)CC3)c(=O)c12`, the melting point was in the range of 180 to 183 °C.

On to `CC1CC(=O)c2cc(OCc3ccc4ccccc4n3)cnc2C1` (stereo not given), for which the melting point lay within 141 to 144 °C.

Take `O=C(NN1CCCCC1)c1nc(-c2ccc(Cl)cc2Cl)c(-c2ccc(Cl)cc2)o1`: the melting point stood at 165 °C.

For `O=C(O)C1Cc2c(ncn2CCC2CCCCC2)CN1C(=O)C(c1ccccc1)c1ccccc1` (stereo not given), the melting point was in the range of 137 to 140 °C.

Molecule `CCN1C(=O)C(C(=O)Nc2cccc(C(=O)Nc3ccc(Br)cc3)c2)c2cc(C(C)=O)ccc21` (stereo not given) had a melting point of 117 to 120 °C.

The molecule `COC(=O)/C=C/[C@H]1[C@@H](C(=O)OCc2cnc(Oc3ccccc3)s2)C1(C)C` came in with a melting point of 62 °C.

Regarding `CCOC(=O)c1cn(C)c2sc(CN3CCOCC3)c(C)c2c1=O`, the melting point is 172 to 173 °C.

`O=c1nc(N(CCO)c2ccccc2)sc2ncccc12` showed a melting point of 168 to 169 °C.

As to `c1ccc(-c2nnc(-c3ccc(CN4CCCCCC4)s3)o2)cc1`, the melting point fell in the range of 95 to 97 °C.

In turn, `c1ccc(CN2CC3CC2CN3C2=Nc3ccccc3Oc3ccccc32)cc1` (stereo not given) registered a melting point of 70 to 72 °C.

Consider `Cc1ccc(C)c(-c2sc(NC(=O)[C@@H]3CC4CCC3CC4)c(C#N)c2Cl)c1`, for which the melting point is 208 to 210 °C.

The molecule `CCCCCCCCCCCCCCCCCNC(=O)O[C@@H]1CCCO[C@H]1CO` (relative stereo) yielded a melting point of 84 to 86 °C.

As for `NC(=O)CON=c1c2nccc3cccc(c32)n2cccc12`, the melting point is 252 °C.

Molecule `NS(=O)(=O)c1ccc(CCN2C(=O)c3ccccc3C2c2ccccc2)cc1` (stereo not given) yielded a melting point of 218 °C.

`CCCCC1(C2CCCC2)Cc2cc(OCCCC(=O)O)c(Cl)c(Cl)c2C1=O` (stereo not given) returned a melting point of 139 to 140 °C.

As to `CCOC(=O)NC(=O)n1c(-c2cc(OC)c(O)c(OC)c2)nc(-c2ccc(N(CC)CC)cc2)c1-c1ccc(N(CC)CC)cc1`, the melting point amounted to 60 °C.

The molecule `C=CCN(CC=C)c1nc(NC(=O)c2ccccc2)n2oc(=O)nc2n1` had a melting point of 174 to 175 °C.

`CCOC(=O)Cc1ccc2c(c1)CC(NC(C)=O)C2` (stereo not given) had a melting point of 82 to 84 °C.

`Cn1cc(-c2ccc(C(F)(F)F)cc2)c(=O)c(-c2cccc(Cl)c2)c1` registered a melting point of 147 to 151 °C.

Molecule `C=Cc1c(C(=O)NC2CC2)nnn1-c1ccc(C(=O)NCC)cc1` returned a melting point of 162 °C.

`Fc1cccc(F)c1-c1cccnc1` had a melting point of 194 to 196 °C.

As to `Cc1cc(C2CC2)nc(NN)n1`, the melting point lay in the range of 98 to 99 °C.

For `CCOc1cc(S(=O)(=O)CC)ccc1-c1nc2ncccc2[nH]1`, the melting point lay in the range of 207 to 208 °C.

`CC(C)C(C)(C(=O)NCCc1ccccn1)C(C)C` displayed a melting point of 60 to 61 °C.

As to `NC(=S)N(c1ccccc1)c1cccc(NNC=O)c1`, the melting point lay within 143 to 145 °C.

Take `CCn1cc(C(=O)O)c(=O)c2cc(F)c(O)cc21`: the melting point was over 250 °C.

Consider `CCC1c2cccn2-c2ccc(Cl)cc2N1C(=O)c1ccc(OC)cc1OC` (stereo not given), for which the melting point was in the range of 70 to 74 °C.

As to `CCN1CCc2ccc(C(=O)CCC(=O)N3CCC(c4ccc(Cl)cc4)CC3)cc2C1`, the melting point was in the range of 115 to 116 °C.

Turning to `CCCCn1nc2c(N)nc3ncccc3c2c1CC(C)(C)O`, the melting point was 232 to 235 °C.

`C=CCn1c(NC)n[nH]c1=S` came in with a melting point of 129 to 131 °C.

Molecule `COc1ccccc1OCC(O)CN1CCC(N2CCNC2=O)CC1` (stereo not given) registered a melting point of 138 °C.

With `COc1cccc(CN2CCCCC2C(=O)O)c1` (stereo not given), the melting point lay within 186 to 187 °C.

As to `CCCC(CCC)Nc1cc(C(=O)O)ccc1N1C(=O)CCC1(CO)CO`, the melting point fell in the range of 227 to 229 °C.

`C[Si](C)(C)N(SN=C(Cl)C#N)[Si](C)(C)C` displayed a melting point of 29 to 30 °C.

`Cn1cncc1C(O)(c1ccc(Cl)cc1)c1ccc2c(c1)c(-c1nc(-c3ccccc3)cs1)cc(=O)n2C` (stereo not given): the melting point is 200 °C.

Regarding `Fc1ccc(C2OC(=S)OC2(Cn2cncn2)c2ccc(Cl)cc2Cl)cc1` (stereo not given), the melting point lay in the range of 169 to 170 °C.

Turning to `CC(C)(C)C(=O)N[C@@H](Cc1ccccc1)C(=O)N[C@@H](Cc1ccccc1)C(=O)NC(CO)Cc1c[nH]cn1` (stereo not given in full), the melting point lay within 124 to 130 °C.

Regarding `COc1nc2ncnn2c(N2CCC(C)CC2)c1-c1ccc(F)cc1Cl`, the melting point came out at 186 °C.

Take `CCS(=O)c1nc2ccc([N+](=O)[O-])cc2s1` (stereo not given): the melting point lay in the range of 145 to 149 °C.

Turning to `N#Cc1cc(F)c(N2C(=O)C3CCCCN3C2=O)nc1Cl` (stereo not given), the melting point was 192 to 193 °C.

`CCOC(=O)CSc1ccc2nncn2n1` displayed a melting point of 130 to 133 °C.

For `C=C1CC(COc2cccc3ccc(C)nc23)(c2ccccc2)OC1=O` (stereo not given), the melting point fell in the range of 108 to 109 °C.

The molecule `O=[N+]([O-])c1ccc(SCc2cnc3ccccn23)cc1` yielded a melting point of 174 to 175 °C.

As for `Cn1cncc1C(O)(c1ccc(Cl)cc1)c1ccc2c(c1)C(c1cccc(Cl)c1)OCC(=O)N2` (stereo not given), the melting point stood at 260 °C.

`FC(F)(F)c1ccc(/C=C/c2nc(COc3ccc(-c4nc(Cn5ccnn5)co4)cc3)cs2)cc1` came in with a melting point of 179 to 181 °C.

`C[C@]12CC[C@H](O)CC1=CCC1C2CC[C@@]2(C)C1CC[C@@H]2c1cn(Cc2ccccc2)nn1` (stereo not given in full) registered a melting point of 286 to 287 °C.

In the case of `CCCc1c(OCCCOC2CC(CC(=O)O)Oc3ccccc32)ccc(C(C)=O)c1O` (stereo not given), the melting point lay in the range of 102 to 105 °C.

As to `S=C(Nc1cccc(Cl)c1)N1CCOC1C1CCCCC1` (stereo not given), the melting point was in the range of 117 to 119 °C.

`Ic1ccc(OCCCCCCCN2CC2)nc1` showed a melting point of 41 to 45 °C.

On to `CC(C)(C)c1cc(CCCOc2ccccc2NC(=O)NC2CCN(Cc3ccccc3)CC2)cc(C(C)(C)C)c1O`, for which the melting point was 148 to 149 °C.

As for `O=C(O)C1=CSC2C(=Cc3cn4c(n3)CCCCC4)C(=O)N12` (stereo not given), the melting point is over 250 °C.

Consider `Cn1c(=O)c2c(nc(Cl)n2Cc2ccccc2I)n(C)c1=O`, for which the melting point stood at 178 °C.

As for `C=CCOC(=O)COc1cccc(NC(=O)NCNC(=O)c2ccccc2C(=O)c2ccccc2)c1`, the melting point lay within 147 to 149 °C.

For the molecule `CCCCOc1nc(N)c2[nH]c(=O)n(CCCCN(Cc3cccc(CC(=O)O)c3)CC(C)(C)CN(C)C)c2n1`, the melting point was 189 to 190 °C.

In turn, `OCCn1ccc2ncnc(Nc3ccc(Oc4cccc5sncc45)c(Cl)c3)c21` came in with a melting point of 218 to 220 °C.

The molecule `Cc1nn(-c2ccccc2)c(=O)c2c1c1c(Br)cccc1n2C` had a melting point of 189 to 190 °C.

On to `O=C(O)c1ccc(Cc2n[nH]c3c2c(=O)n(-c2ccccc2)c2ncccc32)cc1`, for which the melting point was over 320 °C.

Molecule `O=C(c1ccccc1)c1nc2cnc3ccc(F)cc3c2[nH]1` showed a melting point of 255 to 256 °C.

In the case of `CCOc1nn(-c2ccc(C(F)(F)F)cn2)cc1CCCOc1cc(CCC(=O)O)cc(OC)c1`, the melting point fell in the range of 99 to 100 °C.

Regarding `N#CC(c1ccc([N+](=O)[O-])cc1)c1ccccn1` (racemic), the melting point was in the range of 97 to 99 °C.

Take `Cc1cc2c(s1)CNCC2O` (stereo not given): the melting point was determined as 120 °C.

Take `COC(=O)c1cc(O)c(O)c(S(=O)(=O)O)c1`: the melting point stood at 116 °C.

As to `CC(C)c1nc2ccccc2c(=O)n1NC(=O)C(C)c1ccccc1` (stereo not given), the melting point is 48 to 55 °C.

As to `CC(C)OC(=O)c1cc(O)cc2cc(-c3ccc(O)cc3)oc12`, the melting point is over 250 °C.

As to `CCn1cc(C(=O)O)c(=O)c2cc(F)c(N3CCNC(c4ccco4)C3)cc21` (stereo not given), the melting point turned out to be 198 °C.

`CC(C)(C)C1OC1C(O)c1ccc(F)cc1` (stereo not given): the melting point was 56 to 59 °C.

With `Cc1cc(C23CC4CC(CC(C4)C2)C3)ccc1NS(=O)(=O)c1cc([N+](=O)[O-])ccc1Cl`, the melting point was 238 °C.

For `Cc1nn(-c2ccccn2)c2ncc(C(=O)N(C)c3ccccc3)c(Cl)c12`, the melting point was in the range of 154 to 155 °C.

Molecule `COC(=O)c1c(C)sc2cc(CCn3ccnc3)ccc12` displayed a melting point of 90 to 92 °C.

Take `COCOc1ccc(-c2ccc(C=C3SC(=O)NC3=O)cc2)cc1C12CC3CC(CC(C3)C1)C2`: the melting point was in the range of 253 to 254 °C.

In turn, `COc1ccc2ccccc2c1CONC(C)=O` returned a melting point of 112 °C.

In turn, `O=C1c2ccccc2Cc2ccccc2C1Br` (stereo not given) displayed a melting point of 82 to 84 °C.

As to `Nc1ncnc2c1ncn2Cc1oc2ccc(Br)cc2c(=O)c1-c1ccc(F)cc1`, the melting point is 238 to 242 °C.

On to `COc1ccc(Cc2ccc(CO)nc2)cc1`, for which the melting point is 55 to 58 °C.

Consider `C=COC(=O)[C@H](Cc1ccccc1)NC(C)=O`, for which the melting point lay within 90 to 93 °C.

`CC(C(=O)O)c1ccc(C=C2CCCC2O)cc1` (stereo not given) showed a melting point of 125 to 132 °C.

For the molecule `O=C1NCCc2sccc21`, the melting point is 94 °C.

Molecule `COc1cc(C=C2SC(=O)NC2=O)cc(OC)c1O` had a melting point of 248 to 249 °C.

On to `CCOC(=O)CN(C)C=C(Cl)C#N`, for which the melting point was determined as 57 °C.

For `N#CNC(=Nc1cccnc1)NC1CCN(Cc2ccccc2)CC1`, the melting point is 173 to 174 °C.

`CSc1nc(NC2CCCC2)c2ccnc-2[nH]1` yielded a melting point of 190 to 191 °C.

`COc1ccc(-c2ccc(C(C)=O)cc2)cc1OC1CCCC1` had a melting point of 117 to 118 °C.
